Earlier results as cited in patent US20060240450A1, “Genetic analysis for stratification of cancer risk” (priority 2001, published 2006).
Structures can show the parent of a compound that is named as a salt.

Tested on: uterus and breast tissue
Conditions: preliminary clinical data (through 30 months)

SMILES: O=C(c1ccc(OCCN2CCCCC2)cc1)c1c(-c2ccc(O)cc2)sc2cc(O)ccc12 [Raloxifene HCl, methanone, [6-hydroxy-2-(4-hydroxyphenyl)benzo[b]thien-3-yl]-[4-[2-(1-piperidinyl)ethoxy]phenyl]-hydrochloride]
- estrogen-like effects on uterus and breast tissue: lacks estrogen-like effects
